Where two headings read alike, the source gives them in different places.
Columns and labels:
[1] = tested on: Propionic Acidemia (PA) primary fibroblasts GM00371; assay: Mitochondrial respiration, XFe96 Extracellular Flux Analyzer (OCR/ECAR), PA fibroblasts GM00371; format: cell-based; conditions: Homo sapiens, Fibroblast
[2] = tested on: primary fibroblasts GM00649, GM06225, GM00612, GM00444, GM03672; assay: MMP, ROS and ATP multiplex (ArrayScan); format: cell-based; conditions: Homo sapiens, Fibroblast; Leigh GM03672; procedure Example 838; 50 μM (table line r25); read-out: Decreased ROS by at least 10%
Method: Cell culture and treatments. Primary adherent fibroblasts were cultured in minimum essential medium (MEM) (Gibco, 25030081) supplemented with 2 mM L-Glutamine (Gibco, 25030081), 15% fetal bovine serum (FBS) (Gibco, 26400044) and 1% penicillin/streptomycin (Gibco, 5140122) at 37° C. and 5% CO2. Cells were collected for either passaging or experiment at ˜70-80% confluence. Cells were obtained by trypsinization and seeded at 10000 cells/well in cell culture microplates (Seahorse Bioscience, 101085-004) and allowed to adhere for 16 hours in culture media. After media was refreshed with DMEM (Agilent Seahorse 103575-100) supplemented with 1 mM glucose and 10% FBS (Gibco, 26400044). At the end of the incubation period, the cells were loaded with the relevant dye/antibody for each cell health marker. The assay provided simultaneous measurement of cell health parameters including cell count, ROS formation (DHE), mitochondrial membrane potential (MitoTracker®) and cellular ATP content (CellTiter-Glo®, Promega). The plates were then scanned using an automated fluorescent cellular imager, ArrayScan® (Thermo Scientific Cellomics). Assay conditions were optimized by one skilled in the art.
Primary cells used in this example were obtained from Coriell Institute for Medical Research and consisted of GM00649, MSUD (Maple Syrup Urine Disease) Tyle IA; GM06225, Kearns-Sayre Syndrome; GM00612, MSUD (Maple Syrup Urine Disease) Tyle II GM00444, Pyruvate Carboxylase Deficiency and GM03672, Leigh Syndrome.

[3] = tested on: Leigh Syndrome (LS) primary fibroblasts GM03672; assay: NADP+/NADPH (NADP/NADPH-Glo), Leigh fibroblasts GM03672; format: cell-based; conditions: Homo sapiens, Fibroblast, Leigh GM03672 P8, assay condition B (1 mM glucose, 2 mM L-glutamine, 1 mM pyruvate, 10% FBS), 24h, read-out: Increase in Total NADP+ + NADPH
Method: Primary adherent fibroblasts were cultured in minimum essential medium (MEM) (Gibco, 25030081) supplemented with 2 mM L-Glutamine (Gibco, 25030081), 15% fetal bovine serum (FBS) (Gibco, 26400044) and 1% penicillin/streptomycin (Gibco, 5140122) at 37° C. and 5% CO2. Cells were collected for either passaging or experiment at ˜70-80% confluence. Cells were obtained by trypsinization and seeded in cell culture microplates either white plate (Thermo Fisher Scientific, 152028) for luminescent measurement or black plate (Thermo Fisher Scientific, 165305) for fluorescent based read out for different assays listed below. Cells were obtained by trypsinization and […] were seeded and allowed to adhere for 16-18 hours to have confluency around 70-80% in the cell well with culture media. After 24 hours prior to measurements (37° C., 5% CO2) media was changed to Dulbecco's Modified Eagle Medium (DMEM, Agilent Seahorse cat #103575-100) with the appropriate supplements as stated below.
Primary fibroblasts assayed were Propionic Acidemia (PA) (GM03590 Coriell Institute for Medical Research, Tsi 6337 Trans-Hit Bio), Methylmalonic Acidemia (MMA) (Tsi 5224 Trans-Hit Bio), Subnormal activation of pyruvate dehydrogenase complex (PDH) (GM01503 Coriell Institute for Medical Research), Very long-chain acyl-CoA dehydrogenase (VLCAD) (GM17475), Leigh Syndrome (LS) (GM03672, GM13411 Coriell Institute for Medical Research), Pyruvate Carboxylase Deficiency (PC) (GM00444 Coriell Institute for Medical Research). 10 μM of Compounds were added for 2 hours in PA, MMA lines and for 24h for the other fibroblast lines.
Assay was performed according to manufacturer instructions (NADP+/NADPH-Glo Assay Promega, G9082). Assay required a plate for total measurement of NADP+/NADPH and a plate for individual measurement of NADP+ or NADPH. For every assay a 12-point standard curve is prepared ranging from 400 nM to 0.625 nM. Media is removed and replaced with 50 μl of PBS for both assays.
For individual NADP+/NADPH measurements, 50 μl of 1% DTAB (Sigma, D5047) (cell lysis reagent) in 0.2N NaOH was added to the plates and 100 μl of lysate was split into two plates with 50 μl each from which ratio of NADP/NADPH can be calculated. 25 μl of 0.4N HCl were added to the NADP+ plates and both NADP+ and NADPH plates were heated at 60° C. for 15 minutes. The acid and heat treatment destroyed NADPH allowing individual NADP+ measurements while heating in basic conditions destroys NADP+ allowing individual NADPH measurement. After 15 minutes plates were allowed to come to room temperature and Trizma base (Sigma, T1699) was added to the NADP+ plates to neutralize the acid and HCl Trizma hydrochloride (Sigma, T2694) was added to the NADPH plates. The NADNADPH glo reagent was prepared by adding 125 μl of NAD cycling substrate, 125 μl of reductase, 125 μl of reductase substrate, 125 μl NAD cycling enzyme to a total of the 25 ml of NAD GLO reagent. 1:1 ratio of total volume of reagent was added to the individual NADP+, NADPH measurements (total 100 μl) and 50 μl were added for the total NAD/NADPH measurements. Luminescence was measured for 30-60 minutes within the linear range.
A total dead cell count was performed as described in Example 817 and only alive cells were used for analysis.

[4] = tested on: primary fibroblasts (healthy controls and PA, MMA, BCKDK, PDH, VLCAD, LS, PC, GA, VLCFA, KSS, FXN, HD); assay: Measurement of ROS (H2DCFDA) in primary fibroblasts; format: cell-based, human; conditions: Homo sapiens, procedure Example 812, Assay Condition C
How it was run: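 Patient and healthy-control primary fibroblasts switched to supplemented DMEM 24 h before assay, then treated with compound (10 μM) plus H2DCFDA (22 μM) for 2 h (PA, MMA lines) or 24 h (other lines). Kinetic fluorescence at 492/527 nm over 60 min; only live cells analysed.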

HepG2 cells = assay: Glucose uptake (Glucose Uptake-Glo); format: cell-based; conditions: Homo sapiens, 50 uM, read-out: % increase in Glucose Uptake
[5] = tested on: Peripheral blood mononuclear cells co-cultured with venular endothelial cells (HUVEC) (LPS system); assay: BioMAP LPS system; format: cell-based, human; conditions: procedure of Example 827
[6] = tested on: Peripheral blood mononuclear cells co-cultured with B-cells (BT system); assay: cells; conditions: Homo sapiens, 72 h, read-out: % decrease in sIL-17
[7] = tested on: Peripheral blood mononuclear cells co-cultured with venular endothelial cells (Sag system); assay: BioMAP Sag system (T-cell ligands); format: cell-based, human; conditions: 10 uM; procedure of Example 828
Method: The BioMAP platform (BioMAP® Diversity PLUS® Panel from Eurofins) is an in vitro phenotypic profiling technology that screened the compounds of the present disclosure (hereafter indicated as test agents) in human primary cell-based systems modelling complex tissue and disease states. The BioMAP assays were performed using the Eurofin's BioMAP Technology Platform as (see references 1 to 13 in the example 824 section) to model different diseases on primary cell-based model systems. These systems consisted of either single primary cell types or co-culture cells. Adherent cell types were cultured or co-cultured in 96 or 384-well plates until confluence followed by the addition of compounds prepared in DMSO at a final concentration of ≤0.1%. In each cell-based system, primary cells from heathy donors (2-6 donors) were pooled and treated with compounds at 1 and 10 μM dose 1h prior to stimulation and remain in culture as indicated in Example 825, Example 826, Example 827, Example 828, Example 829, Example 830, Example 831, Example 832, Example 833, Example 834, Example 835, Example 836 and Example 837. For on the BioMAP® Diversity PLUS® Panel, please see the following references, which are incorporate herein.
Following the general procedure as described in Example 824, Peripheral blood mononuclear cells were co-cultured with venular endothelial cells and treated with soluble antigen (T-cell ligands) (Sag system) in the presence or absence of compounds to model autoimmune and chronic inflammation. Biomarkers read out were; MCP-1, CD38, CD40, E-selectin, CD69, IL-8, MIG, PBMC cytotoxicity, Proliferation and SRB.

[8] = tested on: Bronchial epithelial cells co-cultured with dermal fibroblast (BF4T system); assay: BioMAP BF4T system (TNFα and IL-4); format: cell-based, human; conditions: Homo sapiens, 24 h; 10 uM; procedure of Example 830; read-out: % increase in VCAM-1
[9] = tested on: Coronary artery smooth muscle cells (CASM3C system); assay: BioMAP CASM3C system (IL-1β, TNFα, IFNγ); format: cell-based, human
[10] = tested on: Bronchial epithelial cells (BE3C system); assay: BioMAP BE3C system (IL-1β, TNFα, IFNγ); format: cell-based, human; conditions: Homo sapiens, Epithelial cell, 24 h; 10 uM; procedure of Example 831; read-out: % decrease in MMP-1
[11] = tested on: Dermal fibroblasts (HDF3CGF system); assay: BioMAP HDF3CGF system (IL-1β, TNFα, IFNγ, EGF, bFGF, PDGF-BB); format: cell-based, human; conditions: Homo sapiens, Fibroblast, 72 h; 1 uM; read-out: % increase in 72 Hour Proliferation
[12] = tested on: Venular Endothelial cells (HUVEC) (4H system); assay: BioMAP 4H system (IL-4 and histamine); format: cell-based, human; conditions: 10 uM; procedure of Example 826

CC(C)(CO)[C@@H](OC(=O)CN)C(=O)NCCC(=O)NCCSC(=O)CCC(=O)O [Compound 1292, 4-[(2-[3-[(2R)-2-[(2-aminoacetyl)oxy]-4-hydroxy-3,3-dimethylbutanamido]propanamido]ethyl)sulfanyl]-4-oxobutanoic acid]
≥ 30%: activation at 10 µM ([1]; assay condition D (1 mM glucose, 10% FBS), 10 μM, read-out: Increase in Spare Capacity AUC) | inhibition at 10 µM ([4]; Fibroblast, KSS GM06225, read-out: Decreased ROS by at least 30%) | inhibition at 10 µM ([4]; FXN GM04078, read-out: Decreased ROS by at least 30%)
≥ 10%: inhibition at 50 µM [2] | activation at 10 µM [3] | inhibition at 10 µM ([4]; Fibroblast, Leigh GM13411, read-out: Decreased ROS by at least 10%) | inhibition at 10 µM ([4]; FXN GM04078, read-out: Decreased ROS by at least 10%)

CCC(=O)OCC(C)(C)[C@@H](O)C(=O)NCCC(=O)NCCSC(=O)CCC(=O)O [Compound 157, 4-[(2-[3-[(2R)-2-hydroxy-3,3-dimethyl-4-(propanoyloxy)butanamido]propanamido]ethyl)sulfanyl]-4-oxobutanoic acid]
≥ 20%: activation at 50 µM (HepG2 cells)
≥ 10%: inhibition at 10 µM ([5]; Homo sapiens, HUVEC, 24 h, 10 uM, read-out: % decrease in IL-1α) | inhibition at 10 µM ([5]; Homo sapiens, HUVEC, 24 h, 10 uM, read-out: % decrease in TissueFactor) | activation at 10 µM ([5]; Homo sapiens, HUVEC, 24 h, 10 uM, read-out: % increase in sTNFα) | inhibition at 1 µM [6] | activation at 50 µM ([1]; assay condition C (10 mM glucose, 10% FBS), 50 μM, read-out: Increase in Maximal Respiratory Capacity AUC) | activation at 10 µM [8] | inhibition at 10 µM [10] | activation at 1 µM [11]
≥10%: % increase in Tissue Factor ([5]; 1 uM) | % increase in Proliferation [7] | % decrease in Proliferation ([9]; 1 uM, procedure of Example 832) | % decrease in HLA-DR ([9]; 10 uM) | % decrease in MCP-1 [12]

— US20230107216A1, “PANTETHEINE DERIVATIVES AND USES THEREOF” (Comet Therapeutics, Inc., priority 2018, published 2023)
